Results as given in US5177188A, “Methods and compositions for diagnosing chronic immune thrombocytopenic purpura” (The Scripps Research Institute, priority 1990, dated 1993).

What was measured:
Design in all cases: species or system human
[1] = test system: plasma autoantibodies (anti-GPIIIa) of chronic ITP patients; assay: Solid-phase radioimmunoassay: plasma autoantibody binding to well-bound synthetic GPIIIa peptide
Experimental: Microtiter wells were activated with 100 μl of 0.1% glutaraldehyde in coating buffer (0.1M NaHCO3, pH 8.3) for 1 hr at room temperature (RT). Wells were washed twice with PBS and then incubated for 2 hr at PT with 1 μg of each synthetic peptide in 100 μl of coating buffer. After 6 washes with 0.05% Tween-20 (Sigma Chemical Co., St. Louis, MO) in PBS (wash buffer), each well was incubated with 200 μl of 2% BSA in wash buffer for 1 hr at RT. The wells were washed 6 times, followed by the addition to triplicate wells of 100 μl of plasma diluted 1/10 in wash buffer. After incubation for 1 hr and 6 washes, 100 μl of radiolabeled anti-human igG in wash buffer (100,000 cpm) was added to each well. After a final 1 hr incubation and 6 washes, well-bound radioactivity was determined. Data were expressed as a ratio: Mean cpm bound to GPIIIa peptide divided by mean cpm bound to control peptide (P10).
Nine synthetic peptides corresponding to different sequences within platelet GPIIIa (P1-P9, Table 1) were used as antigenic targets. A synthetic peptide of human HLA Class I heavy chain was used as a control (P10). Plasma from 13 patients with chronic ITP was studied. […] These 2 hydrophilic overlapping peptides are located at the carboxyterminal region of GPIIIa and together comprise the portion of the molecule considered to be the cytoplasmic domain. Plasma for patients ITP-1 and ITP-2 bound to peptide 9 with mean ratios of 32.4 (3 studies) and 5.8 (2 studies), respectively, while patient ITP-3 plasma bound to both peptides 8 and 9 (mean ratios of 13.3 and 3.3, respectively; 3 studies) and patients ITP-4 and ITP-5 bound to peptide 8 (mean ratios of 3.6, 2 studies and 9.4, 2 studies).

[2] = test system: autoantibody binding to washed platelets; assay: Inhibition of autoantibody binding to washed platelets by peptide
Experimental: Washed platelets (3×10^7) were incubated with patient plasma (ITP-1-15 μl, ITP-2-60 μl, ITP-3-30 μl) in a total volume of 200 μl citrate buffer for 2 hrs at room temperature, followed by 4 washes. After resuspension in 300 μl of citrate buffer, platelets were lysed with 33 μl of 10% Triton X-100 in citrate buffer. Next, 100 μl of lysate was added to wells coated with murine anti-GPIIb. Bound antibody was detected with labeled anti-human IgG as described.
(§1) To evaluate the ability of washed platelets, affinity-purified GPIIb/IIIa or synthetic peptides to block autoantibody binding, serial dilutions of platelets, GPIIb/IIIa or synthetic peptides (maximum addition: 10^10 platelets, 200 μg GPIIb/IIIa or 10 μg of peptide per 100 μl plasma, respectively) were incubated overnight at 4° C. with the patient's plasma. The preincubated plasma (100 μl 1/10 dilution) was added to replicate wells containing either GPIIb/IIIa from platelet lysate, affinity-purified GPIIb/IIIa or synthetic peptide, and antibody binding to each well was evaluated as describe above. Data were expressed as a percent of the binding of untreated plasma (% inhibition).
To evaluate the contribution of these antipeptide antibodies to the patients' total plasma anti-GPIIb/IIIa activity, the ITP plasmas were preincubated with serial dilutions of the appropriate peptide (8 or 9) and then tested in 4 different assays. In the first, the pretreated plasma was incubated with platelets. After washing and lysis, the GPIIb/IIIa complexes were captured on microtiter wells by monoclonal antibody. In the other 3 assays, pretreated plasma was added to microtiter wells coated directly with either peptide or affinity-purified GPIIb/IIIa (Aff-GPIIb/IIIa) or to microtiter wells with GPIIb/IIIa from plate let lysate immobilized by monoclonal antibody (Moab-GPIIb/IIIa). Antibody binding was detected in all assays with labeled antihuman IgG.

[3] = test system: antipeptide antibody binding to GPIIIa peptides; assay: Inhibition of antipeptide antibody binding to GPIIIa peptides by platelets or purified GPIIb/IIIa; settings: plasma ITP-1, -2, -3 (1/10 dilution) preincubated with inhibitor
Experimental: as §1
Three of the peptide-positive plasma samples (ITP-1, -2 and -3) were tested further; additional testing of ITP-4 and ITP-5 was not possible due to insufficient plasma.

## ANNPLYKEATSTFTNITYRDT (ANNPLYDEATSTFTNITYRDT) [P9]
[1]; plasma of patient ITP-1, 1/10 dilution, 3 studies
  mean binding ratio (cpm bound to GPIIIa peptide / cpm bound to control peptide P10): 32.4
[1]; plasma of patient ITP-2, 1/10 dilution, 2 studies
  mean binding ratio (cpm bound to GPIIIa peptide / cpm bound to control peptide P10): 5.8
[1]; plasma of patient ITP-3, 1/10 dilution, 3 studies
  mean binding ratio (cpm bound to GPIIIa peptide / cpm bound to control peptide P10): 3.3
[2]; plasma ITP-1 preincubated with peptide, 3 studies (range)
  inhibition of autoantibody binding to washed platelets: 87.8-98.0
[2]; plasma ITP-2 preincubated with peptide, 2 studies
  inhibition of autoantibody binding to washed platelets: 94.0%
[2]; plasma from ITP-1 and ITP-2 preincubated with peptide, summary in discussion
  inhibition of antibody binding to both platelets and GPIIb/IIIa from platelet lysates: > 80%

## affinity-purified GPIIb/IIIa: GPIIb/IIIa complex eluted from an anti-GPIIb monoclonal antibody (2A9) column loaded with platelet extract
[3]
  inhibition of antibody reactivity of plasma with the GPIIIa peptides: completely inhibited
